Source: patent US12371453B2, “Polypeptide having antibacterial activity, composition for preventing or treating sepsis comprising same, and antibacterial composition” (priority 2019, dated 2025)
Values after ≈ are worked out from the molar mass of the structure shown. Square brackets hold non-standard residues; d marks the D form. Peptide text beside a SMILES is read from it.

Columns and labels:
[1] = test system: S. aureus
[2] = test system: Carbapenem resistant (CR)-Acinetobactor baumannii; test: organism not typed
Description: The antibacterial activity was evaluated according to an antibacterial activity test method for measuring the minimum inhibitory concentration 50 (MIC50; the minimal concentration that kills 50% of bacteria).
More specifically, 100 μL of a medium was dispensed into each well of a 96-well plate, and in the first column, an antibiotic and a peptide in 200 μL of the medium were dispensed. 1/2 serial dilution was performed from columns 1 to 11 and five types of antibiotic-resistant bacteria (ESBL-resistant E. coli, carbapenem-resistant A. baumannii, carbapenem-resistant Klebsiella pneumoniae, carbapenem-resistant Pseudomonas aeruginosa, colistin-resistant Acinetobactor baumannii), which had been previously cultured, were diluted (OD600 nm value in dilution: approximately 0.0025) and dispensed into each well. The plate was incubated in a 37° C. incubator for 4 hours, and measured at OD600 nm.

[3] = Calcein dye leakage from liposome mimicking human red blood cell membrane; assay type: biochemical; settings: calcein-encapsulated liposome
Description: (§1) To study an action mechanism for FP12-NH2, FP13-NH2, allD FP12-NH2, and allD FP13-NH2 peptides, the disruption ability of the peptides against liposomes mimicking a bacterial cell membrane and a red blood cell membrane was measured.
(§2) EYPG is an abbreviation for egg yolk L-α-phosphatidyl-DL-glycerol, and EYPC is an abbreviation for egg yolk 1,2-diacyl-sn-glycero-3-phosphocholine. CH is an abbreviation for cholesterol. After dissolving the phospholipids composed according to the content of each component in chloroform, the chloroform was removed using a rotary evaporator, and lyophilization was performed overnight. Afterward, the dried lipid film was dissolved in a Tris-buffer solution, and calcein […]. After repeated freezing and thawing, the calcein-encapsulated liposome was manufactured using an extruder. Subsequently, after an excitation wavelength of a spectrofluorimeter (Shimadzu RF 5301 PC spectrofluorimeter, Japan) was set to 490 nm, and an emission wavelength was set to 520 nm, the peptide was administered to the liposome to measure relative dye leakage, provided that a 100% dye leakage was expressed as fluorescence intensity when 0.010% Triton-X100 was added.
(§3) The upper graphs of FIG. 3 show the % dye leakage for an EYPC/EYPG (7:3, w/w) liposome mimicking bacterial cells, encapsulating a fluorescent dye, calcein, by a peptide according to a peptide concentration. […] The lower graphs of FIG. 3 show the % dye leakage for an EYPC/CH (10:1, w/w) liposome, which is […] mimicking a human red blood, encapsulating a fluorescent dye, calcein, by a peptide according to a peptide concentration.

[4] = test system: A. baumannii; assay type: cell-based
[5] = Calcein dye leakage from liposome mimicking gram-positive bacterial cell membrane; assay type: biochemical; settings: calcein-encapsulated liposome
Description: To study the action mechanisms for FPT2-NH2, FPT3-NH2, allD FPT2-NH2, and allD FP13-NH2 peptides, the disruption ability of the peptides against a liposome mimicking a bacterial cell membrane was measured.

[6] = Calcein dye leakage from liposome mimicking gram-negative bacterial cell membrane; assay type: biochemical; settings: calcein-encapsulated liposome
Description: as §1, §2, §3

Q: For CC(C)C[C@@H](NC(=O)[C@H](N)CCCCN)C(=O)N[C@H](CCCNC(=N)N)C(=O)N[C@@H](C(=O)N[C@H](CCCCN)C(=O)N[C@H](CC(C)C)C(=O)N[C@H](CCCNC(=N)N)C(=O)N[C@H](CCCNC(=N)N)C(=O)N[C@H](Cc1ccc(O)cc1)C(=O)N[C@H](CC(C)C)C(=O)N[C@H](CCCNC(=N)N)C(N)=O)C(C)C [allD FP13-NH2] (H-[dK][dL][dR][dV][dK][dL][dR][dR][dY][dL][dR]-NH2; N-terminus assumed), which MIC50 [1] is on record?
A: 4 µM (≈ 6 µg/mL)

Q: What about the MIC90 [1] of the same compound?
A: 8 µM (≈ 12 µg/mL)

Q: And the “MIC50, Carbapenem resistant (CR)-Acinetobactor baumannii” value [2]?
A: <4 µg/mL

Q: What about the “dye leakage, PC/CH liposome mimicking a red blood cell membrane” value [3] of the same compound?
A: almost no dye leakage

Q: And the MIC50 [4]?
A: 4 µM (≈ 6 µg/mL)

Q: And the MIC90 [4]?
A: 8 µM (≈ 12 µg/mL)

Q: And the “dye leakage, EYPG/EYPC (6:4, w/w) liposome mimicking gram-positive bacterial cell membrane” value [5]?
A: high dye leakage

Q: And the “dye leakage, PC/PG (7:3, w/w) liposome mimicking a bacteria cell membrane” value [6]?
A: high dye leakage
